In patent US20240376094A2, “SELECTIVE BCL-XL PROTAC COMPOUNDS AND METHODS OF USE” (Les Laboratoires Servier, priority 2021, published 2024):

Assays:
Assay type in all cases: cell-based
[1] = system: EBC-1 lung cancer cell line; assay: EBC-1 cell proliferation, CellTiter-Glo assay; settings: Homo sapiens, 120 h; Ebc-1 cell viability, CTG assay, 5 days of treatment; read-out: CTG 5 day Ebc1 GI50
How it was run: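 EBC-1 cells seeded at 1000 per well overnight, then exposed to 10-point dilutions (0.508 nM–10 μM final) for 5 days at 37 °C, in triplicate. ATP luminescence by CellTiter-Glo, normalised to untreated wells; GI50 from four-parameter logistic fit, runs valid only with at least one doubling.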

[2] = biological target: T1, Bcl-xL (Homo sapiens, UniProt Q07817); assay: HCT116 Bcl-xL degradation, capillary-based immunoassay (WES); settings: for DC50: HCT116, 24 h, 9-point serial dilution
T1 construct: Measured levels of Bcl-xL protein of HCT116 cells treated with the tested compounds; host or cells: HCT116
How it was run: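 HCT116 cells treated 24 h with compound at 10/100 nM and/or 9-point dilution (quadruplicates), then lysed. Bcl-xL measured by capillary WES immunoassay, normalized to cofilin and expressed as % of untreated cells. DC50 from four-parameter curve fit.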

[3] = system: MOLT-4 cells; assay: MOLT-4 cell viability, CTG assay; settings: Homo sapiens, MOLT-4, 48 h
How it was run: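 Cells grown in RPMI 1640 with 10% FBS at 37° C, 5% CO2, then exposed to compounds for 48 h (11-point 5-fold dilution, triplicates). ATP measured by CellTiter-Glo luminescence; IC50 from four-parameter fit versus control, mean of ≥2 independent experiments.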

[4] = biological target: T2, HiBiT-tagged BCL-xL (Homo sapiens, UniProt Q07817); assay: NCI-H1650 BCL-xL protein levels, Nano-Glo HiBiT Lytic Detection; settings: NCI-H1650 expressing HiBiT-tagged BCL-xL, overnight incubation, read-out: Bcl-xl HIBIT NCIH1650 DC50
T2 construct: expressed in transfected cells; host or cells: NCI-H1650 (ATCC No. CRL-5883), engineered HiBiT cell line
How it was run: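 NCI-H1650 cells expressing HiBiT-tagged BCL-xL (5000/well) were treated overnight at 37° C with 10 concentrations, final 0.508 nM-10 μM, in triplicate. Remaining BCL-xL measured by Nano-Glo HiBiT lytic luminescence, normalized to untreated cells; 50% values by four-parameter logistic fit.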

T2 sequence (Q07817 whole entry): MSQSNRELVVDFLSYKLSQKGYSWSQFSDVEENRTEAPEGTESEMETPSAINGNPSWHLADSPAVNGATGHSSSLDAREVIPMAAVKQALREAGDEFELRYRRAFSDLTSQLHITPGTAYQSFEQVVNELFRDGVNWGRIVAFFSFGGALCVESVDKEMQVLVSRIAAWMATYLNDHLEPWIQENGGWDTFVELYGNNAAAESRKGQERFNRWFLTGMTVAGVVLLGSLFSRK
T1 sequence (Q07817 whole entry): as above

GI50 [1] [nM]	DC50 [2] [nM]	IC50 [3] [nM]	DC50 [4] [nM]	remaining activity at 0.01 µM ([2]; HCT-116, HCT116, 10 nM, 24 h, % of untreated cells) [%]	remaining activity at 0.1 µM ([2]; HCT-116, HCT116, 100 nM, 24 h, % of untreated cells) [%]	Structure (SMILES)
8	1.34	13.9	1			Cc1ncsc1-c1ccc([C@H](C)NC(=O)[C@@H]2C[C@@H](O)CN2C(=O)[C@@H](NC(=O)CCCCCCCCCCCNC(=O)c2nc(N3CCCc4c3nnc(Nc3nc5ccccc5s3)c4C)ccc2-c2cnn(CC34CC5(C)CC(C)(C3)CC(OCCN3CCCC3)(C5)C4)c2C)C(C)(C)C)cc1 [Example 131, 6-[3-(1,3-benzothiazol-2-ylamino)-4-methyl-6,7-dihydro-5H-pyrido[2,3-c]pyridazin-8-yl]-3-[1-[[3,5-dimethyl-7-(2-pyrrolidin-1-ylethoxy)-1-adamantyl]methyl]-5-methyl-pyrazol-4-yl]-N-[12-[[(1S)-1-[(2S,4R)-4-hydroxy-2-[[(1S)-1-[4-(4-methylthiazol-5-yl)phenyl]ethyl]carbamoyl]pyrrolidine-1-carbonyl]-2,2-dimethyl-propyl]amino]-12-oxo-dodecyl]pyridine-2-carboxamide]
4		10.2	> 1670	112	105	Cc1ncsc1-c1ccc([C@H](C)NC(=O)[C@@H]2C[C@@H](O)CN2C(=O)[C@@H](NC(=O)CCCCCCCCCN(C)CCOC23CC4(C)CC(C)(CC(Cn5ncc(-c6ccc(N7CCCc8c7nnc(Nc7nc9ccccc9s7)c8C)nc6C(=O)O)c5C)(C4)C2)C3)C(C)(C)C)cc1 [Example 133, 6-[3-(1,3-benzothiazol-2-ylamino)-4-methyl-6,7-dihydro-5H-pyrido[2,3-c]pyridazin-8-yl]-3-[1-[[3-[2-[[10-[[(1S)-1-[(2S,4R)-4-hydroxy-2-[[(1S)-1-[4-(4-methylthiazol-5-yl)phenyl]ethyl]carbamoyl]pyrrolidine-1-carbonyl]-2,2-dimethyl-propyl]amino]-10-oxo-decyl]-methyl-amino]ethoxy]-5,7-dimethyl-1-adamantyl]methyl]-5-methyl-pyrazol-4-yl]pyridine-2-carboxylic acid]
2	0.564	7.19	1			Cc1ncsc1-c1ccc([C@H](C)NC(=O)[C@@H]2C[C@@H](O)CN2C(=O)[C@@H](NC(=O)CCCCCCCCCN2CCN(CC#Cc3ccc(OCCCc4sc(N5CCCc6c5nnc(Nc5nc7ccccc7s5)c6C)nc4C(=O)O)c(F)c3)CC2)C(C)(C)C)cc1 [Example 134, 2-[3-(1,3-benzothiazol-2-ylamino)-4-methyl-6,7-dihydro-5H-pyrido[2,3-c]pyridazin-8-yl]-5-[3-[2-fluoro-4-[3-[4-[10-[[(1S)-1-[(2S,4R)-4-hydroxy-2-[[(1S)-1-[4-(4-methylthiazol-5-yl)phenyl]ethyl]carbamoyl]pyrrolidine-1-carbonyl]-2,2-dimethyl-propyl]amino]-10-oxo-decyl]piperazin-1-yl]prop-1-ynyl]phenoxy]propyl]thiazole-4-carboxylic acid]
1	2.17	2.41	2			Cc1ncsc1-c1ccc([C@H](C)NC(=O)[C@@H]2C[C@@H](O)CN2C(=O)[C@@H](NC(=O)CCCCCCCCCCCCCCCCN(C)CCOC23CC4(C)CC(C)(CC(Cn5ncc(-c6ccc(N7CCCc8c7nnc(Nc7nc9ccccc9s7)c8C)nc6C(=O)O)c5C)(C4)C2)C3)C(C)(C)C)cc1 [Example 145, 6-[3-(1,3-benzothiazol-2-ylamino)-4-methyl-6,7-dihydro-5H-pyrido[2,3-c]pyridazin-8-yl]-3-[1-[[3-[2-[[17-[[(1S)-1-[(2S,4R)-4-hydroxy-2-[[(1S)-1-[4-(4-methylthiazol-5-yl)phenyl]ethyl]carbamoyl]pyrrolidine-1-carbonyl]-2,2-dimethyl-propyl]amino]-17-oxo-heptadecyl]-methyl-amino]ethoxy]-5,7-dimethyl-1-adamantyl]methyl]-5-methyl-pyrazol-4-yl]pyridine-2-carboxylic acid]
